The data set can be described thus: Solubility enhancement of zotarolimus with select excipient solutions. Type of data set: physicochemical. The settings on record: Phosphate buffered saline; n = 3. The text has this: Table 1 provides non-limiting examples of the solubility data for excipients that can be used in accordance with the disclosed subject matter:
As illustrated, in Table 1 the excipients provide for increased solubility for the cytostatic drug, zotarolimus, as compared to saline alone.

As for `CO[C@H]1C[C@@H]2CC[C@@H](C)[C@@](O)(O2)C(=O)C(=O)N2CCCC[C@H]2C(=O)O[C@H]([C@H](C)C[C@@H]2CC[C@H](n3cnnn3)[C@H](OC)C2)CC(=O)[C@H](C)/C=C(\C)[C@@H](O)[C@@H](OC)C(=O)[C@H](C)C[C@H](C)/C=C/C=C/C=C/1C` [Zotarolimus, zotarolimus], the “Zotarolimus Solubility” value turned out to be 0.53 µg/mL.
